Data published in EP0349431B1, “Sucrose derivatives” (BEGHIN-SAY SOCIETE ANONYME, priority 1988, dated 1990).

Tests used:
Type in all cases: cell-based
[1] = test system: Escherichia coli (ATCC 10536); assay: Bacteriostatic activity (CMI), dilution technique in liquid medium, Exemple 9; conditions: read after 24 H incubation at 35°C
Experimental: (§1) On a préparé des mélanges de solutions limpides de l'échantillon et du milieu de culture, contenant un adjuvant de dissolution, ajouté à raison de la quantité minimale nécessaire.
(§2) On a introduit les solutions obtenues telles quelles ou diluées dans des tubes stériles sous un volume inférieur ou égal à 2,5 ml, que l'on a ensuite ajusté sinécessaire à 2,5 ml à l'aide d'eau stérile. On a alors ajouté à chaque tube 2,5 ml de bouillon nutritif préparé à concentration double, ensemencé de façon à contenir environ 1000 germes par ml et ayant la composition suivante : peptone bactériologique 10 g extrait de viande de boeuf 5 g chlorure de sodium 5 g eau déminéralisèe Q S P 500 ml pH ajusté à 7,2 à l'aide de potasse. stérilisation par fractions de 50 ml 20 mn à 120°C
(§3) Les souches testées sont cultivées sur milieu gélosé "trypticase-soja" dont la compositon de formulation : peptone trypsique de caséine 15 g peptone papaïnique de soja 5 g chlorure de sodium 5 g gélose 15 g eau déminéralisée Q S P 1000 ml pH ajusté à l'aide de potasse à 7,3 stérilisation 20 mn à 120°C.
(§4) Après incubation 18 H à 35°C on ensemence à l'aide de ces cultures des tubes de milieu liquide "trypticase-soja" de formulation : peptone trypsique de caséine 17 g peptone papaïnique de soja 3 g chlorure de sodium 5 g phosphate dipotassique 2,5 g glucose 2,5 g eau déminéralisée Q S P 1000 ml pH ajusté à 7,3 à l'aide de potasse stérilisation 20 mn à 120°C.
(§5) Après 18 H d'incubation à 35°C, les cultures obtenues sont homogénéisées puis diluées.
(§6) Les quatres souches suivantes ont été testées : • Streptoccus fecalis (ATCC 9790) • Escherichia coli (ATCC 10536) • Proteus morganii (ATCC 53185) • Staphylococcus (ATCC 6538P)
(§7) On a effectué trois essais, en utilisant les gammes de concentrations suivantes de dipalmitate-6,6′-saccharose oxydé
(§8) On a effectué l'incubation des tubes à 35°C. Les lectures ont été faites après 18, 24 et 48 H en comparaison avec des tubes témoins de croissance de chaque microorganisme testé, en présence d'un agent tensio-actif : Tween 80 (marque de fabrique d'Atlas Chemical Industries, Inc) pour l'essai N° 1 et Triton X 100, (marque de fabrique de Rohm & Haas Co) pour les essais N°2 et N°3. Les résultats, donnés dans le Tableau I ci-dessous, relevés après 24 H d'incubation, indiquent la concentration (mg/ml) testée en dipalmitate-6,6′-saccharose oxydé à partir de laquelle on observe une absence de développement bactérien pour chacune des souches étudiées.

[2] = test system: Staphylococcus (ATCC 6538P); assay: as above; conditions: for concentration à partir de laquelle on observe une absence de développement bactérien: Triton X 100, read after 24 H incubation at 35°C
Experimental: as §1, §2, §3, §4, §5, §6, §7, §8

[3] = test system: Proteus morganii (ATCC 53185); assay: as above; conditions: read after 24 H incubation at 35°C
Experimental: as §1, §2, §3, §4, §5, §6, §7, §8

[4] = test system: Streptoccus fecalis (ATCC 9790); assay: as above; conditions: read after 24 H incubation at 35°C
Experimental: as §1, §2, §3, §4, §5, §6, §7, §8

[5] = test system: souches étudiées (Streptoccus fecalis, Escherichia coli, Proteus morganii, Staphylococcus); assay: Bacteriostatic activity (CMI), overall statement for the strains of Exemple 9; conditions: summary sentence in the text: good bacteriostatic activity, all strains of Exemple 9
Experimental: as §1, §2
as §3, with “120°C. […]” for “120°C.”

[6] = Essai N°1, Tween 80, tested 0,1 - 1 - 10 mg/ml
[7] = Essai N°2, Triton X 100, tested 0,1 - 1,6 mg/ml
[8] = Essai N°3, Triton X 100, tested 0,006 - 3,2 mg/ml

Substance: dipalmitate-6,6′-saccharose oxydé
- concentration à partir de laquelle on observe une absence de développement bactérien [1, 6]: 1 mg/mL
- concentration à partir de laquelle on observe une absence de développement bactérien [1, 7]: 0,8 mg/ml
- concentration à partir de laquelle on observe une absence de développement bactérien [1, 8]: 1,6 mg/ml
- concentration à partir de laquelle on observe une absence de développement bactérien ([2]; Essai N°2, tested 0,1 - 1,6 mg/ml): < 0,1 mg/ml
- concentration à partir de laquelle on observe une absence de développement bactérien ([2]; Essai N°3, tested 0,006 - 3,2 mg/ml): 0,01 mg/ml
- concentration suffisante pour inhiber son développement ([2]; summary sentence in the text on Exemple 9): ≤ 0,01 mg/ml
- concentration à partir de laquelle on observe une absence de développement bactérien [3, 6]: 1 mg/mL
- concentration à partir de laquelle on observe une absence de développement bactérien [3, 7]: 0,2 mg/ml
- concentration à partir de laquelle on observe une absence de développement bactérien [3, 8]: 0,2 mg/ml
- concentration à partir de laquelle on observe une absence de développement bactérien [4, 6]: 1 mg/mL
- concentration à partir de laquelle on observe une absence de développement bactérien [4, 7]: 0,8 mg/ml
- concentration à partir de laquelle on observe une absence de développement bactérien [4, 8]: 0,8 mg/ml
- concentration minimale inhibitrice (CMI) [5]: 1,6 mg/ml
